Test system: adult primary rat dorsal root ganglia (DRG)
Assay: In vitro chemotherapy-induced peripheral neuropathy in rat DRGs treated with cisplatin
Format: cell-based, Sprague Dawley rat
Conditions: 5 μM compound + 0.5 mM cisplatin, 4 days
Method: ACY-1083, obtained from MedChem Express, is a published HDAC6-selective inhibitor and was used as a benchmark. Blinded DMSO was used as an additional negative control. […] Nerve degeneration was evaluated by blebs per area as visualized by fluorescent imaging of beta tubulin staining. Axon area was also evaluated by fluorescent imaging of beta tubulin staining.
Select exemplary compounds were evaluated for prevention of nerve degeneration in an in vitro chemotherapy induced neuropathy model using adult primary rat dorsal root ganglia (DRG). Compounds were blinded for treatment and analysis, using DMSO as a vehicle control. […] Blebs (fragments) signify the beginning of the nerve degeneration process. Total axon area is related to neuron survival and is a more general measure of neuroprotection.
Dissociation solution (100 mL of HBSS with 2 mL of HEPES (1 M, pH 7.25)) was prepared and precooled to 4° C. on study day 1. A 24 well cell culture plate was coated with ECL. Each well was coated with 0.3 mL of ECL solution (1:25 in sterile PBS) and incubated overnight at 37° C. ECL solution was aspirated and the well plate was rinsed with neurobasal medium on study day 2. […]

SMILES	Nerve degeneration: blebs per area compared to vehicle in the presence of cisplatin (FIG. 3A)	Axon area compared to vehicle in the presence of cisplatin (FIG. 3B)
O=C(NO)c1ccc(CN2C[C@H]3CC[C@@H]2CO3)c(F)c1 (single isomer, unassigned) [compound 173]	decreased blebs per area	–
O=C(NO)c1cc(F)c2c(c1)CCN1CCC[C@@H]21 (single isomer, unassigned) [compound 79]	–	increased axon area

Reference: patent US12528767B2, “HDAC6 inhibitors and uses thereof” (Eikonizo Therapeutics, Inc., priority 2019, dated 2026)
